From publication PMC12406203 (Journal of Medicinal Chemistry, 2025)

Experiments:
PBMCs = assay: Cytokine release from PHA-stimulated PBMCs; type: cell-based, human; details: 1, 2.5, and 5 μM, 18 h
Method: Human PBMCs from healthy donors were isolated from heparinized blood by density gradient centrifugation with Ficoll-Paque. The isolated cells were washed twice with PBS, resuspended in RPMI 1640 medium (Sigma-Aldrich, St. Louis, MO, USA) supplemented with 10% heat-inactivated fetal bovine serum (Gibco), 2 mM L-glutamine (Sigma-Aldrich), 100 U/mL penicillin (Sigma-Aldrich), and 100 μg/mL streptomycin (Sigma-Aldrich), and used in the assays.
Peripheral blood mononuclear cells were seeded (500,000 cells/well) in 24-well plates in 500 μL of growth medium and treated with compounds 94, 95, and neflamapimod (1, 2.5, and 5 μM) in the presence or absence of PHA (1 μg/mL) or the corresponding vehicle (0.1% DMSO). Cell-free supernatants were collected after 18 h of incubation (37 °C, 5% CO2) and stored at −80 °C until tested. Cytokine production was determined with BD Cytometric Bead Array human inflammatory cytokines kit (BD Bioscience) on an Attune NxT flow cytometer (Thermo Fisher Scientific, Waltham, MA, USA). Standard curves were generated using recombinant cytokines contained in the kit. The data were analyzed using the FlowJo (Tree Star, Inc., Ashland, OR, USA) and Prism (GraphPad Prism 6.0, GraphPad Software) software.

[1] = test system: scopolamine-induced cognitive deficits in mice; assay: Passive avoidance task, scopolamine-induced amnesia; type: in vivo; details: 1–30 mg/kg i.p.
Excerpt: (§1) In the scopolamine model, the PA and NOR tasks were used for dose selection for further testing.
The mice had unlimited access to food and water prior to the experiment. Specified conditions for the maintenance of mice were ensured throughout the experiment, including tree bedding (Transwior, Poland) and cage enrichment (tunnels, nesting material, wooden igloos, etc.). For behavioral tests, the mice were selected randomly; each group consisted of 7–10 mice.
(§2) Scopolamine hydrobromide (Sigma-Aldrich, Poland) at the dose of 1 mg/kg was used to induce learning and memory deficits. For the in vivo tests, scopolamine was prepared in distilled water (Polfa Kutno, Poland) and was administered subcutaneously (s.c.) 30 min before behavioral tests during the acquisition (training) trial of PA and NOR tasks. […] They were administered intraperitoneally (i.p.) 60 min before the acquisition trial of the PA, NOR, and MWM tasks.
The PA apparatus (Panlab Harvard Apparatus, Spain) consists of a large white-colored illuminated compartment (26 cm × 26 cm × 34 cm) and a small black-colored compartment (13 cm × 7.5 cm × 7.5 cm), which are separated from each other by a guillotine gate (5 cm × 5 cm). The PA task is divided into two trials (i.e., the acquisition trial and the retention trial), each conducted 24 h apart. On the first day, during the acquisition trial (a conditioning phase), the test compounds (94 and 95, neflamapimod and vehicle) were injected. Also, before the acquisition trial, scopolamine or LPS was administered at selected time points. Then, each mouse was placed into the white compartment, and a 30 s habituation period began (guillotine gate is closed). After that, the guillotine gate was opened, and the mice were tested during the 180 s testing period. As soon as the mouse entered the black compartment of the PA device, the guillotine gate was closed and an electrical shock (intensity: 0.2 mA, duration: 2 s) was automatically applied through the grid floor. For each mouse, the latency between the opening of the guillotine gate and the mouse’s entering the black compartment was measured. On the next day, during the retention (drug-off) trial, the mice were placed again into the white compartment for a 30 s habituation period, and the latency to enter the black compartment was measured for each mouse.

[2] = test system: scopolamine-induced cognitive deficits in mice; assay: Novel object recognition task, scopolamine-induced amnesia; type: in vivo; details: 1, 10, and 30 mg/kg i.p.; scopolamine model
Excerpt: as §1
The mice had unlimited access to food and water prior to the experiment. Specified conditions for the maintenance of mice were ensured throughout the experiment, including tree bedding (Transwior, Poland) and cage enrichment (tunnels, nesting material, wooden igloos, etc.). For behavioral tests, the mice were selected randomly; each group consisted of 7–10 mice. […] The procedures for maintenance and treatment of laboratory animals were approved by the first Local Ethics Committee in Krakow (Approval No. 645/2022, 760/2023, and 829/2024 and the treatment of animals was in full accordance with ethical standards laid down in respective Polish and EU regulations (Directive 2010/63/EU).
as §2
The experiment was conducted in opaque black boxes with dimensions of 50 × 50 × 50 cm. The 3 day procedure consists of habituation to the test arena (without any objects) for 10 min on the first day (T0), a training trial (T1), and a testing trial (T2) separated by a 24 h intertrial interval. During T1 (familiarization trial), two identical objects (A and B) were presented in the opposite corners of the arena, approximately 5 cm from its walls. During T2 (recognition trial), one of the objects (B) was replaced by a novel object (C), so that the animals were presented with A (familiar) and C (novel) objects. Both T1 and T2 trials lasted for 10 min, and after each trial, the animals returned to their home cages. White plastic round containers (height 5 cm, diameter 5 cm) attached to the ground with double-sided tape were used as the A, B objects, and green cuboids of similar height were used as object C. The objects were stable enough so that the animals could not displace them. The sequence of presentations and the location of the objects were randomly assigned to each mouse. The animals explored the objects by looking, licking, sniffing, or touching them while sniffing, but not when leaning against, standing, or sitting on the objects. Any mouse exploring the two objects for less than 5 s within the 10 min duration of T1 or T2 was eliminated from the study. An experimenter, blind to the drug treatment, measured the exploration time of the objects.

LPS-treated mice = assay: Morris water maze task, LPS model of neuroinflammation; type: in vivo
Method: The compounds were administered for 10 consecutive days, and on the last 6 days of their administration, LPS was also administered intraperitoneally 5 h before the test compounds. On these 6 days, the acquisition phase of the MWM task was performed. One day later, the retention, drug-off trial of the MWM task was carried out.
In the LPS model adult male C57BL/6J mice (Animal Breeding Farm of the Faculty of Pharmacy, Jagiellonian University Medical College) of similar weight and age were used. […] The mice had unlimited access to food and water prior to the experiment. Specified conditions for the maintenance of mice were ensured throughout the experiment, including tree bedding (Transwior, Poland) and cage enrichment (tunnels, nesting material, wooden igloos, etc.). For behavioral tests, the mice were selected randomly; each group consisted of 7–10 mice. […] After in vivo tests, the animals were immediately euthanized, and their tissues were collected and stored for further ex vivo testing.
LPS (Lipopolysaccharide from Escherichia coli O111:B4, Sigma-Aldrich, Poland) was used to induce neuroinflammation in mice. […] They were administered intraperitoneally (i.p.) 60 min before the acquisition trial of the PA, NOR, and MWM tasks. […] In the rotarod, locomotor activity, and MWM tests, only one dose effective in the scopolamine model of amnesia was evaluated.
The Morris water maze is a circular, plastic, and gray-painted pool (120 cm in diameter and 60 cm in height), filled with water (up to about 48 cm below the edge to prevent an animal from jumping out), maintained at 23 ± 1 °C. The pool was divided into four equal quadrants (compass locations: NE, NW, SE, SW) by a computerized video tracking system (SMART, ver. 3.0; Panlab, Spain). An escape platform (11 cm in diameter and 47 cm in height) at a fixed location (the center of the NW quadrant, i.e., the target quadrant) was made of transparent Plexiglas, being invisible to the swimming animal, and was immersed 1 cm under the surface of water. The maze was lighted with an intensity of 45 lx. […] The time taken to reach the hidden platform (escape latency) on days 1–6 was recorded for each mouse and analyzed. Each animal was released from a different starting point and was allowed to swim for 60 s. […] On the seventh day (a drug-off trial conducted 24 h after the last training trial), the platform was removed from the pool, and a probe trial was performed (without drug treatmentassessment of memory retention).

[3] = test system: mice (motor coordination); assay: Rotarod test; details: 6, 18, and 24 rpm; all mice of the group
Method: For behavioral tests, the mice were selected randomly; each group consisted of 7–10 mice.
In the rotarod, locomotor activity, and MWM tests, only one dose effective in the scopolamine model of amnesia was evaluated.
Three days before the rotarod test, the mice were trained on the rotarod apparatus (Rotarod apparatus, May Commat RR0711, Turkey; rod diameter: 2 cm) that was rotated at a fixed speed of 18 rpm. In each training session, the mice were placed on the rotating rod for 3 min with an unlimited number of trials. The proper experiment was performed 24 h after the last training trial. […] Motor impairments in mice were defined as the inability to remain on the rotarod apparatus for 1 min. The results are expressed as the mean time spent on the rotarod.

[4] = test system: mice (locomotor activity); assay: Locomotor activity test; details: 30 mg/kg, i.p., mean ± SEM
Excerpt: The mice had unlimited access to food and water prior to the experiment. Specified conditions for the maintenance of mice were ensured throughout the experiment, including tree bedding (Transwior, Poland) and cage enrichment (tunnels, nesting material, wooden igloos, etc.). For behavioral tests, the mice were selected randomly; each group consisted of 7–10 mice. […] After in vivo tests, the animals were immediately euthanized, and their tissues were collected and stored for further ex vivo testing.
They were administered intraperitoneally (i.p.) 60 min before the acquisition trial of the PA, NOR, and MWM tasks.
The locomotor activity test was performed using activity cages (40 cm × 40 cm × 30 cm, supplied with IR beam emitters) (Activity Cage 7441, Ugo Basile, Italy) connected to a counter for the recording of light-beam interrupts. […] The animals’ movements (i.e., the number of light-beam crossings) were counted during the next 60 min of the test. Before the experiment, the mice were habituated to activity cages for 15 min.

[5] = Pharmacokinetic study in mice; details: for Kp: brain/serum; for half-life: serum and brain
Method: In this study, male CD-1 mice weighing 27–34 g housed in conditions of constant temperature with a 12:12 h light-dark cycle with free access to food and water were used. Both tested and reference compounds were suspended in 1% Tween in water for injection (Polpharma, Poland) and administered intraperitoneally (i.p.). The mice were sacrificed by decapitation under isoflurane anesthesia at different time points following compound administration. Brains were harvested at the same time points. Blood was allowed to clot at room temperature for 20 min, and serum was separated by centrifugation at 8 000g (Eppendorf MiniSpin centrifuge, Germany) for 10 min. All samples were stored at −80 °C until analysis.
The analytical workflow employed a Sciex QTRAP 4500 triple quadrupole mass spectrometer interfaced with an Exion LC AC HPLC system (Danaher Corporation, USA). Chromatographic separation was achieved on an XBridge C18 column (3 × 50 mm, 5 μm; Waters, USA), utilizing a mobile phase composed of acetonitrile and water both containing 0.1% formic acid. The column temperature was maintained at 40 °C, and a gradient elution protocol (Table S10) was implemented to ensure optimal analyte resolution and retention times. Mass spectrometric detection was conducted in unit resolution mode, with ion transitions specified in Table S11. […] Valsartan served as the internal standard and was monitored at m/z 436 → 207 (collision energy = 42 eV). Positive electrospray ionization (ESI+) was employed to enhance detection sensitivity. Ion path parameters (Table S11) were optimized via direct infusion of analyte solutions (7 μL/min) using a syringe pump. The optimized source conditions included an ion spray voltage of 5500 V, a source temperature of 450 °C, curtain gas pressure at 20 psi, and medium collision gas pressure. […] No significant matrix effects or stability concerns were observed during routine sample analysis. Data acquisition and processing were carried out using Analyst software version 1.7.
Serial dilutions were performed to generate working solutions ranging from 0.01 to 20 μg/mL, corresponding to final calibration concentrations of 0.001–2 μg/mL. For calibration curve construction, 5 μL of each working solution was spiked into 45 μL of the relevant biological matrix (serum or brain homogenate) and vortexed for 10 s. Sample preparation involved protein precipitation, in a 1:3 (v/v) ratio, using acetonitrile containing 0.1% formic acid and the internal standard. The mixtures were agitated for 10 min using an IKA Vibrax VXR shaker (Germany), followed by centrifugation at 8000 × g for 5 min (Eppendorf miniSpin, Germany). The resulting supernatants were transferred to chromatographic vials for analysis.
Brain tissues were homogenized in distilled water at a 1:4 (w/v) ratio using an ULTRA-TURRAX T10 basic homogenizer (IKA, Germany). Aliquots of brain homogenate or serum (50 μL) were subjected to protein precipitation in a 1:3 (v/v) ratio with acetonitrile containing 0.1% formic acid and the internal standard. The mixtures were agitated for 10 min using an IKA Vibrax VXR shaker (Germany), followed by centrifugation at 8000 × g for 5 min (Eppendorf miniSpin, Germany). The resulting supernatants were directly transferred to chromatographic vials for analysis. In cases where analyte concentrations in serum exceeded 20 μg/mL, samples were diluted with blank matrix prior to the deproteinization step. The autosampler was maintained at 15 °C, and a 1 μL aliquot was injected onto the analytical column.
Pharmacokinetic parameters were estimated using the noncompartmental analysis (NCA). The maximum concentration (C max) and the time to reach maximum concentration (t max) in serum and brain were obtained directly from the concentration versus time data.

[6] = test system: TLR4, COX-2, NLRP3, cPLA2 levels in brains of LPS-treated mice; assay: Western blot of brains of LPS-treated mice (ex vivo); type: in vivo; details: 94, 95: 10 mg/kg i.p.; rivastigmine 1 mg/kg i.p.; vs LPS-treated control
Method: After the completion of cognitive assays carried out in the LPS model, the mice were sacrificed, and their brains were collected and stored for further analysis. In the ex vivo part of the study, murine brains were homogenized using T-PER mammalian protein extraction reagent (Thermo Fisher Scientific, Waltham, MA, USA) with protease (Merck Millipore, Burlington, MA, USA) and phosphatase inhibitors (Cayman Chemical, Ann Arbor, MI, USA). The total protein concentrations were determined using the Bradford reaction. Forty μg of the total proteins were solubilized in Laemmli buffer with 2% 2-mercaptoethanol and were subject to 10% SDS-polyacrylamide gel electrophoresis. The anticyclooxygenase 2 (COX-2, diluted 1:1000), antitoll-like receptor 4 (TLR4, diluted 1:1000), anticytosolic phospholipase A2 (cPLA2, 1:1000), and anti-inflammasome (NLPR3, diluted 1:500) were used (Thermo Fisher Scientific, Waltham, MA, USA). The endogenous control was β-actin (1:1000) (Thermo Fisher Scientific, Waltham, MA, USA). The secondary antibody was antirabbit IgG (HRP) diluted 1:2000 (Thermo Fisher Scientific, Waltham, MA, USA). Proteins were detected using the Clarity Western ECL Luminol Substrate (Bio-Rad, Hercules, CA, USA). Chemi Doc Camera with Image Lab 6.1 software (Bio-Rad) was used to quantify the integrated optical density of the bands. The results were normalized to the data obtained for β-actin after stripping the PVDF membrane using Restore Western Blot Stripping Buffer (Thermo Fisher Scientific, Waltham, MA, USA) and expressed as relative to the control. This thorough process ensures the validity and reliability of the results.

[7] = PAMPA
[8] = test system: mice (motor coordination); details: already at the dose of 1 mg/kg, as shown previously; cited from earlier work
[9] = test system: scopolamine-induced cognitive deficits in mice; details: scopolamine-induced memory-impaired mice; doses of 1 and 2.5 mg/kg; reported previously; cited from earlier work
[10] = test system: scopolamine-induced cognitive deficits in mice; details: 1 and 2.5 mg/kg doses; as shown previously; cited from earlier work
[11] = 10 mg/kg i.p., p < 0.05 vs LPS-treated control
[12] = brain, neflamapimod 30 mg/kg i.p., mice
[13] = male, CD-1, mouse, brain, ip, 30 mg/kg
[14] = male, CD-1, mouse, ip, 30 mg/kg
[15] = male, CD-1, mouse, serum, ip, 30 mg/kg
[16] = brain, rivastigmine 2.5 mg/kg i.p., mice
[17] = male, CD-1, mouse, brain, ip, 2.5 mg/kg
[18] = male, CD-1, mouse, ip, 2.5 mg/kg
[19] = male, CD-1, mouse, serum, ip, 2.5 mg/kg

In the case of O=c1ncn2nc(Sc3ccc(F)cc3F)ccc2c1-c1c(Cl)cccc1Cl [neflamapimod, reference compound], the “production of pro-inflammatory cytokines IL-8, IL-1β, IL-6, IL-10, and TNF-α” value (PBMCs) is reported as “significantly inhibited”, the “effect on scopolamine-induced memory decline in PA task” value [1] is reported as “did not confirm memory-improving properties” and the “effect in NOR task” value [2] is reported as “did not reveal its memory-improving properties”. For the same compound, the “time spent at the target zone (MWM day 7)” value (LPS-treated mice; [11]) was “increased”, the “time spent in the NW zone (MWM day 7)” value (LPS-treated mice; [11]) was “increased” and the “spatial learning, acquisition phase of MWM” value (LPS-treated mice; 10 and 30 mg/kg i.p., LPS-treated mice) was “effective in improving spatial learning only on day 3”. The “time spent on the rotarod” value [3] was 60 s, the “number of light-beam crossings” value [4] was 2481 ± 195 and the “AUC0-∞” value [5, 12] was 755355.60 ng·min/mL(g). The AUC(0-t) [5, 12] was 566796.70 ng·min/mL(g), the t0.5λz [5, 12] was 1049.79 min and the Cmax [5, 13] was 2290 ng/g. For the same compound, the MRT [5, 13] was 999 min, the Tmax [5, 13] was 15 min and the k el [5, 13] was 1.1e-05 s⁻¹. It also gave a Kp [5, 14] of 0.68, a half-life [5, 14] of ~1000 min and an AUC(0-inf) [5, 15] of 18700 ng·h/mL. For the same compound, the AUC(0-t) [5, 15] was 14400 ng·h/mL, the CL/F [5, 15] was 27 mL/min/kg and the Cmax [5, 15] was 4090 ng/mL. The MRT [5, 15] was 903 min, the Tmax [5, 15] was 15 min and the Vd/F [5, 15] was 37.8 L/kg. For the same compound, the k el [5, 15] was 1.18e-05 s⁻¹ and the t0.5λz ([5]; serum, neflamapimod 30 mg/kg i.p., mice) was 978.45 min.

In the case of CCN(C)C(=O)Oc1cccc([C@H](C)N(C)C)c1 [rivastigmine, reference compound], the “efficacy in the LPS model of neuroinflammation accompanied by memory decline” value (LPS-treated mice; 1 mg/kg i.p.) is reported as “not effective”, the “escape latency, acquisition phase of MWM” value (LPS-treated mice; 1 mg/kg i.p., vs LPS-treated control, transient, not on days 4–6) is reported as “statistically significantly lower escape latencies were observed on day 3” and the “brain cPLA2 expression” value [6] is reported as “no difference”. For the same compound, the “brain levels of TLR4, COX-2, and NLRP3” value [6] was “significantly lower levels”, the “CNS (+/–)” value [7] was “CNS+ (key: CNS+ indicates high predicted BBB permeation [Pe (×10–6 cm/s) > 4.0]; CNS– indicates low predicted BBB permeation [Pe (×10–6 cm/s) < 2.0])” and the “motor side effects shortly after administration” value [8] was “caused muscle tremor and transient motor coordination deficits”. The “procognitive efficacy in PA task” value [9] was “procognitive activity”, the “efficacy in PA and NOR tasks” value [10] was “effective” and the “AUC0-∞” value [5, 16] was 12082.71 ng·min/mL(g). For the same compound, the AUC(0-t) [5, 16] was 11678.40 ng·min/mL(g), the t0.5λz [5, 16] was 32.64 min and the Cmax [5, 17] was 609 ng/g. It also gave an MRT [5, 17] of 26.6 min, a Tmax [5, 17] of 5 min and a k el [5, 17] of 0.00035 s⁻¹. It also gave a Kp [5, 18] of 4.16, a half-life [5, 18] of ~30 min and an AUC(0-inf) [5, 19] of 48.4 ng·h/mL. The AUC(0-t) [5, 19] was 46.8 ng·h/mL, the CL/F [5, 19] was 860 mL/min/kg and the Cmax [5, 19] was 142 ng/mL. It also gave an MRT [5, 19] of 27.8 min, a Tmax [5, 19] of 5 min and a Vd/F [5, 19] of 37.2 L/kg. It also gave a k el [5, 19] of 0.000383 s⁻¹ and a t0.5λz ([5]; serum, rivastigmine 2.5 mg/kg i.p., mice) of 29.99 min.
